This experiment has as its system Streptococcus pyogenes. The experiment can be described thus: Antibacterial activity against Streptococcus pyogenes clinical isolate by agar dilution method. For orientation: In agar dilution the substance is mixed into plates at graded concentrations.

What is called MIC is the smallest concentration in the dilution series that meets the test's criterion for growth inhibition. A higher MIC goes with weaker potency.

Structures are written as SMILES.

On to `O=C(O)c1cn(C2CC2)c2cc(N3CCNCC3)c(F)cc2c1=O` [CIPROFLOXACIN], for which the MIC was at least 2 µg/mL.

Values taken from ChEMBL document CHEMBL1275548, “Interspecies recombination occurs frequently in quinolone resistance-determining regions of clinical isolates of Streptococcus pyogenes” (2008).
